In patent US20220323429A1, “PIMAVANSERIN FOR TREATING NEURODEGENERATIVE DISEASES” (ACADIA Pharmaceuticals Inc., priority 2019, published 2022):

Assay: Nasogastric Tube Compatibility Study, impurities (HPLC)
Format: physicochemical
Experimental: Analytical HPLC Compatibility Study experiments (Example 2) were performed on Agilent 1200 Series, or equivalent; Waters XBridge C18 column, 5 μm 150×4.6 mm; mobile phase: Solvent A: 50 mM ammonium bicarbonate, pH 8.0; Solvent B: acetonitrile/methanol, 80:20 (v/v); Flow rate: 1 mL/min; Inj. Volume 60 μL; Autosampler Temp.: 5° C.; column temperature: 40° C.; the pooled limit of quantitation was 0.05% of 0.68 mg/mL; detection UV at 210 nm; sample concentration (as free base) assay: 0.034 mg/mL, impurity: 0.34 mg/mL; standard concentration (as free base) 0.034 mg/mL; PLOQ Std. 0.05% of 0.34 mg/mL; SST solution, 1% of 0.34 mg/mL (Impurities A, C, D, E, F, and G); diluent for standards 0.1N HCl; diluent for samples 0.1N HCl; run time, 40 min; gradient method: 0 min mobile phase A (90%) and mobile phase B (10%) to 30 min mobile phase A (0%), and mobile phase B (100%); then 30.1 min to 40 min mobile phase A (90%), mobile phase B (10%).
Three samples of pimavanserin in water (n=3) were prepared as follows. The content of one capsule was dropped into a 100 mL bottle, and the empty capsule shell was discarded. Approximately 40 mL of water was added into the bottle, and the bottle was swirled until the contents were disintegrated. Syringes were secured approximately 1 meter above the benchtop, and the plungers were removed. The Hydromer coating on the weighted top of the NG tube was activated by submerging the weight assembly in water for 10 seconds. The NG tube was flushed with 20 mL of water, and remaining water in the syringe and the NG tube was expelled with the help of the syringe plunger. The weighted tip of the NG tube was placed into 100 mL volumetric flasks on the benchtop.
For each sample, the aqueous dispersion was slowly poured into the syringe, allowing it to drain through the NG tube under gravity into the 100 mL collection volumetric flask. The original bottle containing the aqueous suspension of pimavanserin capsules was rinsed twice with 15 mL of water into the same syringe/NG tube system. The dispersion remaining in the syringe and NG tube was expelled with the help of the syringe plunger. Each flask was diluted to volume with 0.33N HCl (to make a final 0.1 N HCl concentration in the flask). The samples were sonicated for 15 minutes with intermediate shaking. A stir bar was added to the flask and the solution was stirred for 2 hours. An aliquot of each solution was centrifuged for 5 minutes at 10000 rom. The supernatant was transferred to a HPLC vial and injected for impurity analysis.
A “control” sample was prepared following the sample preparation procedure described above except it was not passed through a syringe/NG system. The content of one capsule was dropped into a 100 mL volumetric flask, and the empty capsule shell was discarded. Next 70 mL of water was added into the flask and swirled until the contents were completely disintegrated. The flask was diluted to volume with 0.33 N HCl (to make final 0.1N HCl concentration). The sample was sonicated for 15 minutes with intermediate shaking. A stir bar was dropped into the flask, and the solution was stirred for 2 hours. An aliquot was taken and centrifuged for 5 minutes at 10000 rpm. The supernatant was transferred to a HPLC vial and injected for impurity analysis.

Imp-D (NG Tube Control): 0.13 % w/w
Impurity RRT-0.36 (NG Tube Control): 0.05 % w/w
Impurity RRT-0.54 (NG Tube Control): 0.07 % w/w
Impurity RRT-0.96 (NG Tube Control): 0.06 % w/w
Impurity RRT-0.99 (NG Tube Control): 0.07 % w/w
Total degradation products and impurities (NG Tube Control): 0.38 % w/w
Imp-D (NG Tube Mean (n = 3)): 0.13 % w/w
Impurity RRT-0.36 (NG Tube Mean (n = 3)): 0.06 % w/w
Impurity RRT-0.54 (NG Tube Mean (n = 3)): 0.07 % w/w
Impurity RRT-0.85 (NG Tube Mean (n = 3)): 0.05 % w/w
Impurity RRT-0.96 (NG Tube Mean (n = 3)): 0.06 % w/w
Impurity RRT-0.99 (NG Tube Mean (n = 3)): 0.06 % w/w
Impurity RRT-1.11 (NG Tube Mean (n = 3)): 0.05 % w/w
Total degradation products and impurities (NG Tube Mean (n = 3)): 0.48 % w/w
Imp-D (NG Tube N = 1): 0.13 % w/w
Impurity RRT-0.36 (NG Tube N = 1): 0.05 % w/w
Impurity RRT-0.54 (NG Tube N = 1): 0.07 % w/w
Impurity RRT-0.85 (NG Tube N = 1): 0.05 % w/w
Impurity RRT-0.96 (NG Tube N = 1): 0.05 % w/w
Impurity RRT-0.99 (NG Tube N = 1): 0.07 % w/w
Total degradation products and impurities (NG Tube N = 1): 0.42 % w/w
Imp-D (NG Tube N = 2): 0.14 % w/w
Impurity RRT-0.36 (NG Tube N = 2): 0.06 % w/w
Impurity RRT-0.54 (NG Tube N = 2): 0.07 % w/w
Impurity RRT-0.96 (NG Tube N = 2): 0.06 % w/w
Impurity RRT-0.99 (NG Tube N = 2): 0.07 % w/w
Impurity RRT-1.11 (NG Tube N = 2): 0.05 % w/w
Total degradation products and impurities (NG Tube N = 2): 0.45 % w/w
Imp-D (NG Tube N = 3): 0.13 % w/w
Impurity RRT-0.99 (NG Tube N = 3): 0.05 % w/w
Total degradation products and impurities (NG Tube N = 3): 0.18 % w/w
impurity profile of compatibility samples versus control sample (NG tube): matched
unknown impurities (stability or recovery portions of the studies): < 0.1%
Compound: CC(C)COc1ccc(CNC(=O)N(Cc2ccc(F)cc2)C2CCN(C)CC2)cc1 [Pimavanserin, N-(4-Fluorophenylmethyl)-N-(1-methylpiperidin-4-yl)-N′-(4-(2-methylpropyloxy)phenylmethyl)carbamide]
